Entries after “also recorded” stand apart in the source; their conditions may differ.
Assays:
Format in all cases: cell-based, mouse
[1] = tested on: MK2−/− MEF; test: procollagen type I α1 mRNA level by RT-PCR in MK2−/− MEF; settings: TGFβ 1 ng/mL for 24 hours
Experimental: (§1) Semiquantitative RT-PCR to measure mRNA in mouse MEF was used. In brief, RNA was isolated from treated or untreated MEF using the RNeasy kit (Qiagen, Valencia, Calif.) according to manufacturesr's instructions. The amount of RNA was determined spectrophotometrically, and equal amounts were used to generate cDNA by reverse transcription using the Superscript III system (Invitrogen, Carlsbad, Calif.) according to manufacturer's instructions. Next an equal volume of the cDNA was added to a master mix containing the following primers. For sma, the primers 5′-GCATCCACGAAACCACCTA-3′ and 5′-[…]-3′ were used to generate a 418 bp PCR product from mouse smooth muscle α-actin cDNA. For β-actin, the primers 5′-[…]-3′ and 5′-[…]-3′) were used to generate 348 bp product from mouseβ-actin cDNA. The primers 5′-[…]-3′ and 5′-[…]3′ were used to generate a 142 bp product from mouse procollagen type I alpha 1 cDNA. The PCR reaction was carried out as using a Bio-Rad I-cycler thermal cycler (Hercules, Calif.). […] After staining with ethidium bromide, photographs of the gels were taken, scanned, and the intensity of the bands was measured using UnScanIt software (Orem, Utah). The relative amount of smα and procollagen RNA was determined by dividing the intensity of their corresponding PCR product band by the intensity of the β-actin PCR product band.

[2] = tested on: MK2−/− MEF; test: smα mRNA level by semiquantitative RT-PCR in MK2−/− MEF; settings: TGFβ 1 ng/mL for 24 hours
Experimental: as §1

[3] = tested on: WT MEF; test: procollagen type I α1 mRNA level by RT-PCR in WT MEF; settings: TGFβ 1 ng/mL for 24 hours
Experimental: as §1

[4] = tested on: SRE promoter; test: SRE-luciferase promoter-reporter assay in MK2−/− MEF; settings: TGFβ 1 ng/mL
Experimental: (§2) For SRE promoter-reporter assays WT and MK2^−/− MEF, were transfected with the SRE.L-luciferase vector which contains two copies of SRE.L, a derivative of c-fos serum response element driving the expression of luciferase. The SRE.L vector was introduced alone in the case of WT MEF, and co-transfected with pMEpuro (a selection vector which confers resistance to puromycin to eukaryotic cells) in the case of MK2^−/− MEF. The vectors were introduced (5 μg of SRE.L, and 0.5 μg pMEpuro) into MEF using lipofectamine. Stable transfected WT MEF cell lines were obtained by selection with geneticin, and resistant colonies were isolated, expanded, and then screened for baseline luciferase activity. Since the MK2^−/− MEF were already resistant to geneticin, stable transfectants produced by co-transfection with pMEpuro were selected with puromycin, and resistant clones were isolated and expanded as above. The firefly luciferase activity was assayed using a kit from Promega (Madison, Wis.) according to the manufacturer's instructions. In brief, cells were lysed and the substrate (beetle luciferin) was added to the lysate. Next, chemiluminescence was measured using a luminometer.
Since MK2 has been reported to phosphorylate SRF, whether the effect of MK2 suppression on smα expression is due to its effect on the SRE promoter was tested. […]

[5] = tested on: WT MEF; test: smα mRNA level by semiquantitative RT-PCR in WT MEF; settings: TGFβ 1 ng/mL for 24 hours
Experimental: as §1

[6] = tested on: WT MEF; test: smα-actin protein level by Western blot in WT MEF; settings: TGFβ 1 ng/mL for 24 hours
Experimental: (§3) Aliquots from the cell lysates prepared as described above were assayed for protein using the Bradford protein assay and then diluted with 2× Laemmli loading buffer for SDS-PAGE. Equal amounts of protein were then loaded in each well of 4-20% Tris/glycine gels. After electrophoresis for 90 min at 125 V constant voltage, the gel was blotted onto an Immobilon-P membrane by electrophoretic transfer at 25 V constant voltage overnight. The membrane was then washed, blocked with 5% milk, and probed with antibodies against MK2 (Cell Signaling, Beverly, Mass.) smα (Sigma, St. Louis, Mo.) or pan-actin (Santa Cruz, Santa Cruz, Calif.). The immunoreactive bands were visualized using a secondary antibody conjugated to horseradish peroxidase (Pierce, Rockford, Ill.).and a chemiluminescent substrate according to the manufacturer's instructions (SuperSignal, Pierce, Rockford, Ill.). The intensity of the bands was quantified using a UnScanIt software (Orem, Utah).
(§4) TGFβhas been implicated in the fibrotic response because of its ability to induce differentiation of fibroblasts into myofibroblasts. Whether TGFβ can induce myofibroblast differentiation in both WT MEF and MK2^−/− MEF was tested. Cells were growth arrested in serum free media for 24 hr then exposed to TGFβ (1 ng/mL).

[7] = tested on: MK2−/− MEF; test: smα-actin protein level by Western blot in MK2−/− MEF; settings: TGFβ 1 ng/mL for 24 hours
Experimental: as §3, §4

[8] = tested on: SRE promoter; test: SRE-luciferase promoter-reporter assay in WT MEF; settings: TGFβ 1 ng/mL
Experimental: as §2
Since smα induction by several agents including TGFβ has been reported to occur through activation of serum response elements (SRE) in the smα promoter, whether this activation occurs in WT MEF was tested.

[9] = greatest after 6 hours, baseline by 24 hours
[10] = SB-203580 1 μM, measured at 6 hours

Compound	procollagen type I α1 mRNA level [1]	smα mRNA level [2]	procollagen type I α1 mRNA level [3]	SRE-luciferase promoter activity [4, 9]	smα mRNA level [5]	smα-actin protein level [6]	smα-actin protein level [7]	SRE-luciferase promoter activity [8, 9]	block of TGFβ activation of SRE-luciferase promoter [4, 10]	block of TGFβ activation of SRE-luciferase promoter [8, 10]
TGFβ	did not appear to alter; also recorded: did not suppress	significantly reduced; also recorded: significantly decreased	did not appear to alter	SRE promoter activity increased; also recorded: caused activation	increased; also recorded: appeared to increase	smα-actin level increased; also recorded: produce more sma	did not respond to TGFβ by increasing smα-actin; also recorded: produce even less smα	SRE promoter activity increased; also recorded: caused activation		
C[S+]([O-])c1ccc(-c2nc(-c3ccncc3)c(-c3ccc(F)cc3)[nH]2)cc1 (stereo not shown) [SB-203580, reference compound]									completely blocked	partially blocked
